Experiment in all cases: DTP human tumour cell line panel, 48 h
The subject of experiment [1] is COLO 205 colon.
Experiment [2] has as its system EKVX NSCLC.
Experiment [3] deals with HCT-15 colon.
Experiment [4] concerns HOP-92 NSCLC.
Experiment [5] relates to KM12 colon.
The subject of experiment [6] is NCI-H522 lung.
Experiment [7] concerns RXF 393 renal.
The test system of experiment [8] is SK-MEL-28 melanoma.
Experiment [9] relates to SK-OV-3 ovarian.
The test system of experiment [10] is SN12C renal.
The subject of experiment [11] is SNB-75 CNS.
For experiment [12], the system named is TK-10 renal.
The subject of experiment [13] is UACC-257 melanoma.
The subject of experiment [14] is MALME-3M melanoma.

SMILES strings stand for the structures.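 In this assay, cells in 96-well plates receive the compound at five concentrations for 48 hours. Endpoints are linearly interpolated between the surrounding concentrations. GI50: concentration for 50% inhibition of growth. TGI is the concentration that stops growth completely.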

TGI and GI50 data for 17 compounds are collected here from PubChem BioAssay (NCI).

Take `O=C1OC(c2ccccc2)=NC1c1ccccc1` (centres undefined): the TGI in [1], in [2], in [3], in experiment [4], in experiment [5] and in experiment [6] was > 100 µM throughout. Also, the concentration for total growth inhibition (TGI) in experiment [7], in experiment [8], in [9], in experiment [10], in experiment [11] and in experiment [12] was > 100 µM in each case. Also, the concentration for total growth inhibition (TGI) (in general, the concentration giving total growth inhibition) in [13] is > 100 µM.

As for `OCC#CCNCl`, the TGI in experiment [1], in experiment [2], in experiment [3], in experiment [4], in experiment [5] and in experiment [14] was > 100 µM throughout. Further, the TGI in experiment [6], in experiment [7], in [8], in experiment [9], in experiment [10] and in experiment [11] was > 100 µM in each case. Moreover, in [13], the TGI was > 100 µM.

With `FC(F)(F)c1ccc2c(c1)N(CCCNCCN1CCOCC1)c1ccccc1S2`, the total growth inhibition concentration (TGI) came out at 6.84 µM in experiment [1]; 29.4 µM in [2]; 19.5 µM in experiment [3]; 11.2 µM in [4]; 25 µM in experiment [5]; 7.15 µM in experiment [14]. Moreover, the total growth inhibition concentration (TGI) amounted to 30.6 µM in experiment [6]; 9.11 µM in [7]; 17.3 µM in [8]; 26.9 µM in experiment [10]; 20.9 µM in experiment [11]; 25.4 µM in experiment [12]. Further, the TGI in experiment [13] was determined as 23.3 µM.

As to `O=[N+]([O-])C(=C/c1ccccc1)/C(=C\c1ccccc1)[N+](=O)[O-]`, the total growth inhibition concentration (TGI) in experiment [1] is 40 µM; in experiment [2], 34 µM; in experiment [4] it was 39.8 µM; in experiment [5], 29 µM; in [7] it was 33.5 µM; in experiment [8], 31.2 µM. Moreover, the TGI in [9] was found to be 48.2 µM; in experiment [10], 49.4 µM; in [11], 37 µM; in experiment [12], 29.6 µM; in experiment [13] it was 32.1 µM.

`C/C(=C/C(=O)Nc1ccccc1)Nc1onc(C)c1C`: the concentration for total growth inhibition (TGI) in [1], in [2], in [3], in [4], in [5] and in experiment [14] was > 100 µM each time. In addition, the TGI in experiment [6], in experiment [7], in experiment [8], in experiment [9], in [10] and in [11] was > 100 µM each time. Moreover, the TGI in experiment [13] is > 100 µM.

`OCC1O[C@H](O[C@@H]2CCCN3CC(O)C(O)[C@@H]23)C(O)C(O)C1O` (some centres undefined): the total growth inhibition concentration (TGI) in [1], in experiment [2], in [3], in experiment [4], in experiment [5] and in experiment [14] was > 100 µM throughout. The TGI in [6], in [8], in [9], in [10], in experiment [11] and in experiment [12] was > 100 µM throughout. Further, the total growth inhibition concentration (TGI) in experiment [13] was > 100 µM.

As for `Cc1ccc(/C=C2\Sc3scc(-c4ccccc4)[n+]3C2=O)cc1`, the TGI in experiment [1] is 52.4 µM; in experiment [2] it was > 58.5 µM; in experiment [3], 50.8 µM; in [4] it was > 49.7 µM; in experiment [5] it was > 49.5 µM; in experiment [6], 19.6 µM. Further, the TGI was 90.2 µM in experiment [7]; > 100 µM in experiment [8]; > 67.6 µM in experiment [9]; > 54.2 µM in experiment [10]; > 58.9 µM in [11]; 53.1 µM in experiment [12]. The total growth inhibition concentration (TGI) in experiment [13] is > 62.3 µM.

Regarding `Nc1nc(Nc2ccc(Cl)c(Cl)c2)nc2nc[nH]c12`, the TGI came to 44.3 µM in experiment [1]; 18.8 µM in experiment [2]; 37.2 µM in experiment [3]; 33.5 µM in [4]; 28.6 µM in experiment [5]; 32.5 µM in experiment [14]. Further, the concentration for total growth inhibition (TGI) in experiment [6] was determined as 29.3 µM; in experiment [7], 20.1 µM; in experiment [9] it was 31.8 µM; in experiment [10] it was 44.6 µM; in experiment [11], 20.9 µM; in [12], 28.3 µM. In experiment [13], this compound came in with a TGI of 32.7 µM.

In the case of `O=C1C(Cl)N(c2c(Cl)cccc2Cl)C1c1c[nH]c2ccccc12` (centres undefined), the TGI in experiment [1], in experiment [2], in experiment [4], in experiment [5], in experiment [14] and in experiment [6] was > 100 µM each time. The concentration for total growth inhibition (TGI) in [7], in [8], in [9], in [10], in [11] and in [12] was > 100 µM each time. In experiment [13], the TGI was > 100 µM.

In the case of `COc1cc(OC2OC(CO)C(O)C(O)C2O)c2c(O)c3c(=O)cc(C)oc3cc2c1` (centres undefined), the concentration for total growth inhibition (TGI) in [1], in [2], in experiment [3], in experiment [5], in experiment [14] and in experiment [6] was > 100 µM each time. In addition, the TGI in [8], in experiment [9], in experiment [11], in experiment [12] and in [13] was > 100 µM in each case.

On to `CCOC(=O)Cc1cc(OC)c(OC)cc1/C(Cl)=C(\CO)c1ccc(OC)c(OC)c1`, for which the total growth inhibition concentration (TGI) in [1] was > 100 µM; in experiment [2] it was > 100 µM; in experiment [3] it was > 100 µM; in experiment [4] it was 98.1 µM; in experiment [14], > 100 µM; in [7] it was > 100 µM. In addition, the TGI in experiment [8] was > 100 µM; in experiment [9] it was > 100 µM; in [10], > 100 µM; in experiment [11], 54 µM; in [12], > 100 µM; in experiment [13], > 100 µM.

Take `C[N+](C)(CCCCCC[N+](C)(C)CCCN1C(=O)c2cccc3cccc(c23)C1=O)CCCN1C(=O)c2cccc3cccc(c23)C1=O`: the concentration for total growth inhibition (TGI) in experiment [1], in experiment [2], in [3], in [4], in [5] and in experiment [14] was > 100 µM in each case. Also, the total growth inhibition concentration (TGI) in experiment [6], in [7], in experiment [8], in experiment [9], in [10] and in [12] was > 100 µM throughout. In [13], the TGI is > 100 µM.

Consider `CCNC(=O)C(C)C1CCC2(C)C=CC(=O)C(C)=C2C1O` (centres undefined), for which the TGI in experiment [1], in experiment [2], in [3], in experiment [4], in experiment [5] and in experiment [6] was > 100 µM each time. Besides, the TGI in experiment [7], in experiment [8], in experiment [9], in experiment [10], in experiment [11] and in [13] was > 100 µM throughout.

`O=S(O)CCCCCSSc1ccccc1`: the TGI in [2] was > 100 µM; in [5], > 100 µM; in [14], > 100 µM; in experiment [6], 42 µM; in experiment [7], 89.2 µM; in experiment [8], > 100 µM. The total growth inhibition concentration (TGI) was > 100 µM in experiment [9]; > 100 µM in experiment [10]; 99.5 µM in experiment [11]; > 100 µM in experiment [12]; > 100 µM in experiment [13].

With `O=C(NN1C(=O)C(Cl)C1c1ccccc1O)c1ccccc1O` (centres undefined), the concentration for total growth inhibition (TGI) in [1], in experiment [2], in [4], in experiment [5], in experiment [14] and in experiment [6] was > 100 µM each time. Besides, the TGI in [7], in experiment [8], in [9], in [10], in [11] and in experiment [12] was > 100 µM throughout. In experiment [13], the concentration for total growth inhibition (TGI) was > 100 µM.

In the case of `N#C/C(=C\c1ccncc1)c1csc2ccccc12`, the TGI in experiment [1] is 35.9 µM; in [2], > 100 µM; in experiment [3], 77.4 µM; in experiment [4], 51.7 µM; in experiment [5] it was 37.8 µM; in experiment [14] it was > 96.2 µM. Further, the TGI in experiment [6] is 41.9 µM; in experiment [7] it was > 83.1 µM; in experiment [8], > 100 µM; in [9], > 73.1 µM; in experiment [10], > 74.8 µM; in [11], 78.5 µM. For the same compound, the TGI in [13] is > 75.3 µM.

Take `CCCCCC(=O)N[C@@H](c1ccco1)[C@@H](O)C(=O)O[C@H]1C[C@@]2(O)[C@@H](OC(=O)c3ccccc3)[C@@H]3[C@]4(OC(C)=O)CO[C@@H]4C[C@H](O)[C@@]3(C)C(=O)[C@H](OC(C)=O)C(=C1C)C2(C)C`: the TGI in [1] is 0.00015 µM; in experiment [2] it was > 25 µM; in [3], > 25 µM; in [4] it was > 25 µM; in [5], > 25 µM; in [6] it was 0.00228 µM. The TGI in [9] is > 25 µM; in experiment [12], 18.2 µM. Further, the GI50 – broadly, the concentration at which growth is held to half of that of the control – in experiment [3] was 0.0396 µM; in experiment [14], 0.000357 µM; in experiment [7], 0.000206 µM; in experiment [9], 0.00163 µM; in experiment [11], 0.00226 µM; in experiment [12] it was 0.0275 µM.
